In US20020184656A1, “In vivo assay system for screening and validation of drugs and other substances” (priority 2001, published 2002):

Experiments:
[1] = tested on: transgenic flies expressing human APC (hAPC/CBD) in developing eyes (using ey-GAL4); test: Drug screening on human APC-induced eye phenotypes in transgenic flies (drug in fly food); format: in vivo, Drosophila; conditions: for Total number of flies with eye phenotypes (in parenthesis: total number of flies of right genotype) / Number of flies with eye phenotypic ranks 6-10 / Number of flies with eye phenotypic ranks 11-15 / Number of flies with eye phenotypic ranks 1-5 / Number of flies with eye phenotypic ranks 16-20: Ey-GAL4, hAPC/CBD
Description: Table 1 Distribution of eye phenotypes induced by hAPC/CBD in different genetic backgrounds and in the presence of various compounds and other anti-cancer drugs. Numbers are from a representative experiment. Number in parenthesis in the last column indicates total number of the flies of right genotype.
(§1) In yet another embodiment of the present invention, LD50 is determined for each of the chemicals tested. At concentrations LD50 and below, none of the drugs induce any morphological phenotypes in wildtype flies. Thereafter, the effect of these drugs on transgenic flies expressing human APC in developing eyes (using ey-GAL4) is examined.
Eye phenotypes induced by human APC are arranged in the order of severity from 1 to 20. Human APC in wildtype background induced phenotypes of ranks 1-9. […] WT—wild type eye.
(§2) For drug screening, drugs (at different concentrations) were added to fly food at <50° C. and left over-night for drying. Care was taken to ensure homogenous mixing of the drug in the fly food. Blind-tests were carried out, wherein the vials with or without drugs were coded (with the help of other members of the lab). The crosses were always set-up in triplicates. The method of administering drugs described above is only an example and should not be limited to it as there can be other ways of administering drugs.

[2] = tested on: Drosophila; test: LD50 determination of the drugs in flies; format: in vivo; conditions: drug in fly food
Description: as §1, §2

[3] = 50 micrograms/ml fly food, 47 flies of right genotype
[4] = 200 microgram/ml fly food, 121 flies of right genotype
[5] = 500 micrograms/ml fly food, 59 flies of right genotype
[6] = 200 micrograms/ml fly food, 61 flies of right genotype

## O=c1[nH]cc(F)c(=O)[nH]1 [5-fluorouracil]
[1]; 50 micrograms/ml fly food
  Total number of flies with eye phenotypes (in parenthesis: total number of flies of right genotype): 14(47)
[1]; [3]
  Number of flies with eye phenotypic ranks 6-10: 4
  Number of flies with eye phenotypic ranks 11-15: 1
[1]; 50 micrograms/ml fly food, 47 flies of right genotype, severity ranks 1 to 20
  Number of flies with eye phenotypic ranks 1-5: 9

## COc1ccc2c(c1)c(CC(=O)O)c(C)n2C(=O)c1ccc(Cl)cc1 [Indomethacin]
[1]; 200 microgram/ml fly food
  Total number of flies with eye phenotypes (in parenthesis: total number of flies of right genotype): 47(121)
[1]; [4]
  Number of flies with eye phenotypic ranks 1-5: 12
  Number of flies with eye phenotypic ranks 6-10: 8
  Number of flies with eye phenotypic ranks 11-15: 16
  Number of flies with eye phenotypic ranks 16-20: 11
[1]; ey-GAL4, extent similar to the enhancement shown by Df(3R)by^62
  Effect on human APC-induced eye phenotypes: enhances human APC-induced eye phenotypes
[1]; ey-GAL4, human APC
  Concentration dependence of the effect on human APC-induced eye phenotypes: concentration dependent
  Concentration of maximum effect on human APC-induced eye phenotypes: 200 μg/ml of fly food
[1]; human APC in wildtype background without drug: ranks 1-9, often resulting eyeless flies
  Ranks of eye phenotypes observed (severity 1 to 20): 1-20
[2]
  LD50: 250 μg/ml of fly food

## CN1C(C(=O)Nc2ccccn2)=C(O)c2ccccc2S1(=O)=O [Pyroxicam]
[1]; 500 micrograms/ml fly food
  Total number of flies with eye phenotypes (in parenthesis: total number of flies of right genotype): 21(59)
[1]; [5]
  Number of flies with eye phenotypic ranks 1-5: 11
  Number of flies with eye phenotypic ranks 6-10: 7
  Number of flies with eye phenotypic ranks 11-15: 1
  Number of flies with eye phenotypic ranks 16-20: 2

## CC(=O)Oc1ccccc1C(=O)O [aspirin]
[1]; 200 micrograms/ml fly food
  Total number of flies with eye phenotypes (in parenthesis: total number of flies of right genotype): 19(61)
[1]; [6]
  Number of flies with eye phenotypic ranks 1-5: 13
  Number of flies with eye phenotypic ranks 6-10: 4
  Number of flies with eye phenotypic ranks 11-15: 2
